Measured values from US12325696B2, “Indazole derivative, preparation method therefor, and pharmaceutical application thereof” (JIANGSU HENGRUI MEDICINE CO., LTD., priority 2019, dated 2025).

Tests used:
[1] = molecular target: estrogen receptor ERα Y537S mutant-type (Homo sapiens (Human), UniProt P03372, Y537S); assay: Covalent modification of ERα Y537S mutant-type LBD by high-resolution mass spectrometry; format: binding; details: after 24 hours; 2 μM protein, 10 μM compound, 4° C.
Description: (§1) The ligand binding domain (LBD, aa296-554) of estrogen receptor ERα wild-type and ERα Y537S mutant-type was expressed in E. coli and purified. 2 μM ERα wild-type or ERα Y537S mutant-type protein and 10 μM compound were added to a buffer solution containing 50 mM Tris-HCl, pH7.5, 150 mM NaCl, 1 mM TCEP and 5% glycerol and mixed well. The solution was incubated at 4° C. for 24 hours, followed by high-resolution mass spectrometry (Agilent Technologies, Agilent Q-tof 6530) assay. Alternatively, 1 μM ERα wild-type or ERα Y537S mutant-type protein and 3 μM compound were added to a buffer solution containing 50 mM Tris-HCl, pH7.5, 150 mM NaCl, 1 mM TCEP and 5% glycerol and mixed well. The solution was incubated at 37° C. for 15 minutes, followed by high-resolution mass spectrometry assay. In the mass spectrometry assay results, the peak whose molecular weight is the sum of the molecular weight of the protein and compound is the product of covalent modification. The percentage of covalent modification is obtained by calculating the ratio of […] to total protein.

MCF7 ERαY537S = assay: Inhibition of proliferation of MCF7 cell expressing ERα Y537S mutant; format: cell-based; details: Homo sapiens, 144 hours; for Emax: read-out: Maximum inhibition
From the text: (§2) The mutants ERα Y537S and ERα D538G of human estrogen receptor α (ERαs) protein were obtained by site-directed mutagenesis using the cDNA of wild-type ESR1 gene (Accession No. NM000125) as a template according to double-primer PCR. The primer sequences used for mutagenesis are as follows (the nucleotides underlined are the sites of mutagenesis):
(§3) The cDNA of mutant ESR1 was cloned into the target lentiviral vector pCDH-CMV-MCS-EF1-Puro (SBI, CD510B-1). The lentiviral plasmid with the mutant ESR1 gene sequence and the lentiviral packaging plasmids pVSV-G and pCMV-dR8.91 (SBI, LV500A-1) were transfected into HEK-293T cells (ATCC, CRL-3216) by Lipofectamine 3000 Transfection Reagent (ThermoFisher Scientific, Cat #L3000075). 48 hours after the transfection, the supernatant of the virus-containing DMEM high-glycemic medium (GE Healthcare, SH30243.01) containing 10% FBS was filtered, and ultracentrifuged to obtain the virus pellet. The virus pellet was resuspended in an appropriate amount of MEM medium (GE Healthcare, SH30024.01) containing 10% FBS, non-essential amino acids (SIGMA, M7145-100ML) and sodium pyruvate (SIGMA, S8636-100ML), and the resulting suspension was added to MCF7 cells (ATCC, HTB-22). Polybrene (SIGMA, H9268-5G) at a final concentration of 8 µg/ml was added, and the cells were incubated overnight. Two days after the transfection, […] puromycin (invitrogen, A11138-03) was added to the cell culture medium for resistance screening. After about two weeks, the MCF7 cell line capable of stably expressing ERαY537S and ERα D538G mutants was obtained.
(§4) MCF7 cells expressing ERα mutant were cultured in MEM (GE Healthcare, SH30024.01) complete medium containing 10% fetal bovine serum. On the first day of the experiment, the cells were seeded in a 96-well plate with the complete medium at a density of 3,000 cells/well (100 μl of cell suspension per well), and the plate was incubated in a cell incubator at 37° C. and 5% CO2 overnight. On the second day, the medium in each well was replaced with 135 μl of MEM incomplete medium containing 2% fetal bovine serum. 15 μl of test compound solution of different concentrations formulated with the incomplete medium was added to each well, wherein the final concentrations of the compound were nine concentration points obtained by a 4-fold gradient dilution starting from 100 nM. A blank control containing 0.500 DMSO was set. The plate was incubated in a cell incubator at 37° C. and 500 CO2 for 144 hours. On the eighth day, the 96-well plate was taken out, and 150 of CellTiter-Glo® Luminescent Cell Viability Assay (Promega, G7573) was added to each well. The plate was left to stand at room temperature for 10 minutes, and the luminescence signal values were measured using a multi-label microplate reader (PerkinElmer, VICTOR 3). The IC50 values of the inhibitory activity of the compounds were calculated based on the concentrations and luminescence signal values of the compounds using Graphpad Prism software.

[2] = tested on: estrogen receptor reporter gene; assay: Inhibition of estrogen receptor reporter gene activity (ERE-luc luciferase) in MCF7/ERE-luc cells; format: cell-based; details: Homo sapiens, 0.1 nM β-estradiol, 20 hours, read-out: IC50 of inhibitory activity on the activity of the estrogen receptor reporter gene
Description: MCF7 cells MCF7/ERE-luc (ATCC, HTB-22) expressing the luciferase reporter gene ERE-luc (synthesized by GENEWIZ, Inc.) controlled by the estrogen receptor response element were cultured in MEM (GE Healthcare, SH30024.01) medium containing 10% fetal bovine serum and 500 µg/ml G418. On the first day of the experiment, MCF7/ERE-luc cells were seeded in a 96-well plate with incomplete MEM medium containing 10% fetal bovine serum treated with activated charcoal (BioSun, BS-0004-500) at a density of 30,000 cells/well (100 μl of cell suspension per well), and the plate was incubated in a cell incubator at 37° C. and 5% CO2 overnight. On the second day, 10 μl of β-estradiol (SIGMA, E2758-250MG) solution formulated with the above incomplete medium or test compound solution of different concentrations formulated with the above incomplete medium was added to each well, wherein the final concentration of β-estradiol was 0.1 nM, and the final concentrations of the compound were nine concentration points obtained by a 10-fold gradient dilution starting from 10 μM, a blank control containing 0.5% DMSO was set, and the plate was incubated in a cell incubator at 37° C. and 5% CO2 for 20 hours. On the third day, the 96-well plate was taken out, and 100 μl of ONE-Glo™ Luciferase Assay system (Promega, E6110) was added to each well to determine the activity of luciferase. The plate was left to stand at room temperature for 3 minutes until the cells were fully lysed, and the luminescence signal values were measured using a multi-label microplate reader (PerkinElmer, VICTOR 3). The IC50 values of the inhibitory activity of the compounds were calculated using Graphpad Prism software based on the concentrations and luminescence signal values of the compounds.
The inhibitory effect of the compounds of the present disclosure on the activity of the estrogen receptor reporter gene was determined by the above test. A graph of the chemiluminescence signal values versus the logarithmic concentrations of the compound was made using Graghpad Prism.

[3] = molecular target: estrogen receptor ERα wild-type (Homo sapiens (Human), UniProt P03372); assay: Covalent modification of ERα wild-type LBD by high-resolution mass spectrometry; format: binding; details: after 24 hours; 2 μM protein, 10 μM compound, 4° C.
estrogen receptor ERα wild-type, sequence (P03372 296-554): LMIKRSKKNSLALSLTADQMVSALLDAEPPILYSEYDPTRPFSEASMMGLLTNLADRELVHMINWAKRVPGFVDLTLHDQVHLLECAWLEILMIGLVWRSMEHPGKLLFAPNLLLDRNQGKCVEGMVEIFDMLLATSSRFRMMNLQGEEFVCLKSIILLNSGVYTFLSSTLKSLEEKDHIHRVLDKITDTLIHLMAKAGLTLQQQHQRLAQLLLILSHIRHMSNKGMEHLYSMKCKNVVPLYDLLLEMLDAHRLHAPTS
Description: as §1

MCF7 D538G = assay: Inhibition of proliferation of MCF7 cell expressing ERα D538G mutant; format: cell-based; details: Homo sapiens, 144 hours; for Emax: read-out: Maximum inhibition
From the text: as §2, §3, §4

MCF7 cell = assay: Inhibition of proliferation of MCF7 cell (CellTiter-Glo, 144 hours); format: cell-based; details: Homo sapiens; for IC50: MCF7, CellTiter-Glo, read-out: IC50 of the inhibitory effect on the proliferation of MCF7 cell; for Emax: MCF7 cell proliferation, read-out: Maximum inhibition
Description: as §4, with “cells (ATCC, HTB-22)” for “cells expressing ERα mutant”, “experiment, MCF7” for “experiment, the”, “containing 0.5%” for “containing 0.500”, “and 5%” for “and 500”, “150 μl” for “150”
A graph of the chemiluminescence signal values versus the logarithmic concentrations of the compound was made using Graghpad Prism to obtain the IC50 values of the compound.

estrogen receptor ERα Y537S mutant-type, sequence (P03372 296-554 Y537S): as the sequence (P03372 296-554) above, with Y242S counted along it

Row | Compound | Covalent modification effect on the estrogen receptor ERα Y537S mutant-type [1] | IC50 (MCF7 ERαY537S) | Emax (MCF7 ERαY537S) | IC50 [2] | Covalent modification effect on the estrogen receptor ERα wild-type [3] | IC50 (MCF7 D538G) | Emax (MCF7 D538G) | IC50 (MCF7 cell) | Emax (MCF7 cell)
1 | CN(C)C(=O)/C=C/CN1CCC[C@@H](Oc2ccc(/C(=C(/CC(F)(F)F)c3ccc(C#N)cc3)c3ccc4[nH]nc(F)c4c3)cn2)C1 [Example 24, (E)-4-((R)-3-((5-((Z)-2-(4-Cyanophenyl)-4,4,4-trifluoro-1-(3-fluoro-1H-indazol-5-yl)but-1-en-1-yl)pyridin-2-yl)oxy)piperidin-1-yl)-N,N-dimethylbut-2-enamide] | 99% | 8 nM | 102% | 9 nM | 90% | 8 nM | 94% | 1 nM | 98%
2 | O=C(/C=C/CN[C@H]1CCCN(c2ccc(/C(=C(/CC(F)(F)F)c3ccccc3)c3ccc4[nH]nc(F)c4c3)cn2)C1)N1CCOCC1 [Example 38, (E)-1-Morpholino-4-(((S)-1-(5-((Z)-4,4,4-trifluoro-1-(3-fluoro-1H-indazol-5-yl)-2-phenylbut-1-en-1-yl)pyridin-2-yl)piperidin-3-yl)amino)but-2-en-1-one] | 96% | 4 nM | 102% | 5 nM | 95% | 2 nM | 108% | 0.8 nM | 96%
3 | CN(C)C(=O)/C=C/CNC1(COc2ccc(/C(=C(/CC(F)(F)F)c3ccccc3)c3ccc4[nH]nc(F)c4c3)cn2)CCCCC1 [Example 8, (E)-N,N-Dimethyl-4-((1-(((5-((Z)-4,4,4-trifluoro-1-(3-fluoro-1H-indazol-5-yl)-2-phenylbut-1-en-1-yl)pyridin-2-yl)oxy)methyl)cyclohexyl)amino)but-2-enamide] | 97% | 2 nM | 107% | 3 nM | 96% | 1 nM | 103% | 0.1 nM | 113%
4 | CN(C)C(=O)/C=C/CN1CCC[C@@H](Oc2ccc(/C(=C(/CC(F)(F)F)c3ccc(C(F)(F)F)cc3)c3ccc4[nH]nc(F)c4c3)cn2)C1 [Example 22, (E)-N,N-Dimethyl-4-((R)-3-((5-((Z)-4,4,4-trifluoro-1-(3-fluoro-1H-indazol-5-yl)-2-(4-(trifluoromethyl)phenyl)but-1-en-1-yl)pyridin-2-yl)oxy)piperidin-1-yl)but-2-enamide] | 100% | 15 nM | 97% | 24 nM | 95% | 15 nM | 93% | 4 nM | 103%
5 | O=C(/C=C/CNC1(COc2ccc(/C(=C(/CC(F)(F)F)c3ccccc3)c3ccc4[nH]nc(F)c4c3)cn2)CC1)N1CCCC1 [Example 2, (E)-1-(Pyrrolidin-1-yl)-4-((1-(((5-((Z)-4,4,4-trifluoro-1-(3-fluoro-1H-indazol-5-yl)-2-phenylbut-1-en-1-yl)pyridin-2-yl)oxy)methyl)cyclopropyl)amino)but-2-en-1-one] | 90% | 3 nM | 107% | 3 nM | 87% | 2 nM | 104% | 0.6 nM | 112%
6 | CC(C)(C)NC(=O)/C=C/CN1CCC[C@@H](Oc2ccc(/C(=C(/CC(F)(F)F)c3ccccc3)c3ccc4[nH]nc(F)c4c3)cn2)C1 [Example 16, (E)-N-(Tert-butyl)-4-((R)-3-((5-((Z)-4,4,4-trifluoro-1-(3-fluoro-1H-indazol-5-yl)-2-phenylbut-1-en-1-yl)pyridin-2-yl)oxy)piperidin-1-yl)but-2-enamide] |  | 4 nM | 88% | 5 nM |  | 2 nM | 110% | 0.8 nM | 102%
7 | CN(C)C(=O)/C=C/CN1CCC(Oc2ccc(/C(=C(/CC(F)(F)F)c3ccccc3)c3ccc4[nH]nc(F)c4c3)cn2)CC1 [Example 9, (E)-N,N-Dimethyl-4-(4-((5-((Z)-4,4,4-trifluoro-1-(3-fluoro-1H-indazol-5-yl)-2-phenylbut-1-en-1-yl)pyridin-2-yl)oxy)piperidin-1-yl)but-2-enamide] |  | 2 nM | 94% | 2 nM |  | 0.8 nM | 108% | 0.1 nM | 110%
